Columns and labels:
[1] = system: primary human leukemia cells harboring an MLL-AF4 fusion; assay: MLL-AF4 patient-derived xenograft model with in vivo treatment and limiting dilution assay; set-up: species or system mouse; conditions: ELDA; engraftment >1% hCD45+ in peripheral blood three months after transplantation; DMSO 1/247973
Source text: NOD.Cg-Prkdc^scid Il2rg^tm1Wjl Tg(CMV-IL3, CSF2, KITLG) 1Eav/MloySzJ (NSGS), NOD.Cg-Prkdc^scid Il2rg^tm1Wjl/SzJ (NSG) or NOD.Cg-Prkdc^scid Il2rg^tm1Wjl/RJ (NXG) were obtained from The Jackson Laboratory (Bar Harbor, ME, USA). 8-12-weeks old adult mice (male and female) were irradiated with 2 Gy (single dose) before transplantation. 1×10^5 MOLM-13, ML-2 or MV-4; 11 cells transduced with either of two PSMB8/LMP7 shRNAs or non-targeting control; with a pLEX vector containing the sequence of BASP1 or an empty vector; or treated ex vivo with the indicated inhibitors were injected intravenously via the tail vein. For patient derived xenograft experiments (PDX) of human MLLr leukemia we used an improved model for human HSC transplantation and analysis, that has been developed from immune-deficient mouse strains containing Kit mutations: NOD.Cg-^KitW-41J Prkdc^scid Il2rg^tm1Wjl/WaskJ (NSGW41) (Cosgun et al., 2014). […] Human myeloid engraftment (hCD45+ CD13+) was analyzed by flow cytometry. […]
FIGS. 4J-4K show number of engrafted mice per dilution (engraftment is considered if the percentage of hCD45+ cells is >1% in peripheral blood three months after transplantation) is shown and leukemic stem cell (LSC) frequency calculated using the ELDA (Extreme Limiting Dilution Assay) software (reference). […]

MLLr cell lines = assay: Cell growth (cell counting after trypan blue exclusion) of MLLr cell lines; format: cell-based, human; conditions: 250-500 nM; MOLM-13, MV-4;11, ML-2, KOPN-8; FIG. 1H
Protocol: MOLM-13, MONO-MAC-6, THP-1, KOPN-8, ML-2, MV-4;11, OCI-AML3, U-937, KASUMI-1, K-562, HL-60 and LAMA-84 cells were purchased from DSMZ (Braunschweig, Germany). Cas9-Blast cell lines are subclones of the respective cell lines and stably transduced with lentiCas9-Blast (Addgene plasmid #52962). Cells were cultured in RPMI 1640 medium (Thermo Fisher Scientific, Waltham, MA, USA) supplemented with 10-20% FBS (Thermo Fisher Scientific) in a humid atmosphere of 5% CO2 at 37° C. MV4;11 cells harboring Menin-inhibitor resistance mediating mutations of Menin were generated by CRISPR-Cas9 technology.
Cellular proliferation was assessed by cell counting after trypan blue exclusion. Apoptosis of cells was measured by flow cytometry using Annexin V/SYTOX® Blue staining following the manufacturer's instruction.

Row | SMILES | LSC frequency [1] | reduction of cell growth in MLL-rearranged human AML cell lines (MLLr cell lines)
1 | Cc1c(CN2CCC(Nc3ncnc4sc(CC(F)(F)F)cc34)CC2)ccc2c1cc(C#N)n2Cc1cn[nH]c1 [MI-503, 4-Methyl-1-(1H-pyrazol-4-ylmethyl)-5-[[4-[[6-(2,2,2-trifluoroethyl)thieno[2,3-d]pyrimidin-4-yl]amino]-1-piperidinyl]methyl]-1H-indole-2-carbonitrile] | 1/363914 | –
2 | O=C(N[C@H](Cc1coc2ccccc12)B(O)O)[C@@H]1C[C@@H]2CC[C@H]1O2 [M3258, ((S)-2-(benzofuran-3-yl)-1-((1R,2R,4S)-7-oxabicyclo[2.2.1]heptane-2-carboxamido)ethyl)boronic acid] | – | recapitulated
